In article PMC12504763, “Antiproliferation, 3D-multicellular spheroid and VEGFR-2 inhibitory properties of spiroindolin-2-ones with phosphonate function” (Scientific Reports, 2025):
Read-outs that look alike come from different tables or passages of the source.

Tests used:
TNF-α [1] = assay: TNF-α inhibitory properties (ELISA), HCT116 cell lysate; format: cell-based, human; details: at 10 μM; for TNF-α pg/mL (± SEM) HCT116: control 95.74 ± 0.5
[2] = system: PaCa2 (pancreatic) cancer cell line; assay: 2D-monolayer antiproliferation (MTT) against PaCa2; format: cell-based, human; details: for 1/(observed property): 1/observed IC50 (μM), PaCa2; for IC50: Homo sapiens, PaCa-2, MTT, 72 h incubation, PaCa2 pancreatic, read-out: IC50, μM ± SEM PaCa2; for SI (selectivity index) PaCa2: IC50 of RPE1 normal cell/IC50 of PaCa2
[3] = system: A549 (lung) cancer cell line; assay: 2D-monolayer antiproliferation (MTT) against A549; format: cell-based, human; details: for IC50: Homo sapiens, MTT, 72 h incubation, A549 lung, read-out: IC50, μM ± SEM A549; for SI (selectivity index) A549: IC50 of RPE1 normal cell/IC50 of A549
[4] = system: HCT116 (colon) cancer cell line; assay: 2D-monolayer antiproliferation (MTT) against HCT116; format: cell-based, human; details: for IC50: Homo sapiens, HCT-116; for SI (selectivity index) HCT116: IC50 of RPE1 normal cell/IC50 of HCT116
TNF-α [5] = assay: TNF-α inhibitory properties (ELISA), MCF7 cell lysate; format: cell-based, human; details: at 10 μM; for TNF-α pg/mL (± SEM) MCF7: control 83.26 ± 1.1
COX-1 = target: T1, COX-1 (Ovis aries, UniProt P05979); assay: biochemical; details: 3 replicates, read-out: % Inhibition of COX-1 ± SEM
T1 construct: purchased BioVision incorporated USA K548–100
T1 sequence (P05979 25-600): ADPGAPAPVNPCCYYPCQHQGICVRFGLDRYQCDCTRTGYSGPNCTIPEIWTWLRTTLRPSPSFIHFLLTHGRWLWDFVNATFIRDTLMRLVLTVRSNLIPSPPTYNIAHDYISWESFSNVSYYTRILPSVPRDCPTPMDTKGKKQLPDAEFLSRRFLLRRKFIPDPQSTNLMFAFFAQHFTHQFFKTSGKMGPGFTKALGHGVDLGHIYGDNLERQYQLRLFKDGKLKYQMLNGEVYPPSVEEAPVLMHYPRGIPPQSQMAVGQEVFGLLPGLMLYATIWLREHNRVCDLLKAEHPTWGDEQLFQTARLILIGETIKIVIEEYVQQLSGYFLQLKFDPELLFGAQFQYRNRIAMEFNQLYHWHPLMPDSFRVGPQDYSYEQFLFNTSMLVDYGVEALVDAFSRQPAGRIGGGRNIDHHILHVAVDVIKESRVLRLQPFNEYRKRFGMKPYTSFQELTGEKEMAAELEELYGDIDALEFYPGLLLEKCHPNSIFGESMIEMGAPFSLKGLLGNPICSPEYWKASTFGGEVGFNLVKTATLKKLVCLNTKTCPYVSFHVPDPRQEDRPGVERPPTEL

VEGFR-2 [6] = target: T2, VEGFR-2 (Homo sapiens, UniProt P35968); assay: cell-based; format: cell-based; details: for inhibition at 10 µM: HCT-116, HCT116; for VEGFR-2 pg/mL ± SEM HCT116: at 10 μM, control 317.80 ± 3.5
T2 construct: endogenous in cells; host or cells: HCT116, PaCa2, MCF7 (human cancer cell lines, ATCC origin)

[7] = system: MCF7 (breast) cancer cell line; assay: 2D-monolayer antiproliferation (MTT) against MCF7; format: cell-based, human; details: for IC50: Homo sapiens, MTT, 72 h incubation, MCF7 breast, read-out: IC50, μM ± SEM MCF7; for SI (selectivity index) MCF7: IC50 of RPE1 normal cell/IC50 of MCF7
VEGFR-2 [8] = target: T2, VEGFR-2; assay: cell-based; format: cell-based; details: for inhibition at 10 µM: PaCa-2, PaCa2; for VEGFR-2 pg/mL ± SEM PaCa2: at 10 μM, control 326.80 ± 1.9
VEGFR-2 [9] = target: T2, VEGFR-2; assay: cell-based; format: cell-based; details: for inhibition at 10 µM: MCF7; for VEGFR-2 pg/mL ± SEM MCF7: at 10 μM, control 258.70 ± 2.3
COX-2 = target: T3, COX-2 (Homo sapiens, UniProt P35354); assay: biochemical; details: for inhibition at 10 µM: 3 replicates, read-out: % Inhibition of COX-2 ± SEM; for SI (selectivity index, COX-2/COX-1): at 10 μM
T3 construct: purchased BioVision incorporated USA K548–100
T3 sequence (P35354 18-604): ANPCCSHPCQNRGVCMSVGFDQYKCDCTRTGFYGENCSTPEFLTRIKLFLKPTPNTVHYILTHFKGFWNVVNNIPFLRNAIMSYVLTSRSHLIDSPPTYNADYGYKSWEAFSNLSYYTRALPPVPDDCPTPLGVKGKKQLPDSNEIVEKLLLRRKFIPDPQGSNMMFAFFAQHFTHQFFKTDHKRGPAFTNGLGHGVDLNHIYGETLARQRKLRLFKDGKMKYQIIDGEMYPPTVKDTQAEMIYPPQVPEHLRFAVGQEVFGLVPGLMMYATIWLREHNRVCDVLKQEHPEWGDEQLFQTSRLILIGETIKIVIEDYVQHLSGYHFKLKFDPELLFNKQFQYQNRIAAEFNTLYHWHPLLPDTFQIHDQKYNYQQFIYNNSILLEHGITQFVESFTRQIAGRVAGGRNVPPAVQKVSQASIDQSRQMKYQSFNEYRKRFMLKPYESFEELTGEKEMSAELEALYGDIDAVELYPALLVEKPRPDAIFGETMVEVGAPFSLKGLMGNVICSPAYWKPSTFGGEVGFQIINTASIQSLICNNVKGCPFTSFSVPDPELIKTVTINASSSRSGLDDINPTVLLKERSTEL

[10] = system: RPE1 (normal human immortalized retinal pigment epithelial cell line); assay: cells; format: cell-based; details: for IC50: Homo sapiens, RPE-1, MTT, normal RPE1 cell, read-out: IC50, μM ± SEM RPE1; for selectivity index (SI): IC50 against RPE1 compared to the tested cancer cell line(s), in words
TNF-α [11] = assay: TNF-α inhibitory properties (ELISA), PaCa2 cell lysate; format: cell-based, human; details: at 10 μM; for TNF-α pg/mL (± SEM) PaCa2: control 111.8 ± 2.0
[12] = MTT, 72 h incubation, HCT116 colon, read-out: IC50, μM ± SEM HCT116
[13] = log of observed IC50 (μM), HCT116, read-out: Log(observed property) (converted)

T2 sequence (P35968 20-1356): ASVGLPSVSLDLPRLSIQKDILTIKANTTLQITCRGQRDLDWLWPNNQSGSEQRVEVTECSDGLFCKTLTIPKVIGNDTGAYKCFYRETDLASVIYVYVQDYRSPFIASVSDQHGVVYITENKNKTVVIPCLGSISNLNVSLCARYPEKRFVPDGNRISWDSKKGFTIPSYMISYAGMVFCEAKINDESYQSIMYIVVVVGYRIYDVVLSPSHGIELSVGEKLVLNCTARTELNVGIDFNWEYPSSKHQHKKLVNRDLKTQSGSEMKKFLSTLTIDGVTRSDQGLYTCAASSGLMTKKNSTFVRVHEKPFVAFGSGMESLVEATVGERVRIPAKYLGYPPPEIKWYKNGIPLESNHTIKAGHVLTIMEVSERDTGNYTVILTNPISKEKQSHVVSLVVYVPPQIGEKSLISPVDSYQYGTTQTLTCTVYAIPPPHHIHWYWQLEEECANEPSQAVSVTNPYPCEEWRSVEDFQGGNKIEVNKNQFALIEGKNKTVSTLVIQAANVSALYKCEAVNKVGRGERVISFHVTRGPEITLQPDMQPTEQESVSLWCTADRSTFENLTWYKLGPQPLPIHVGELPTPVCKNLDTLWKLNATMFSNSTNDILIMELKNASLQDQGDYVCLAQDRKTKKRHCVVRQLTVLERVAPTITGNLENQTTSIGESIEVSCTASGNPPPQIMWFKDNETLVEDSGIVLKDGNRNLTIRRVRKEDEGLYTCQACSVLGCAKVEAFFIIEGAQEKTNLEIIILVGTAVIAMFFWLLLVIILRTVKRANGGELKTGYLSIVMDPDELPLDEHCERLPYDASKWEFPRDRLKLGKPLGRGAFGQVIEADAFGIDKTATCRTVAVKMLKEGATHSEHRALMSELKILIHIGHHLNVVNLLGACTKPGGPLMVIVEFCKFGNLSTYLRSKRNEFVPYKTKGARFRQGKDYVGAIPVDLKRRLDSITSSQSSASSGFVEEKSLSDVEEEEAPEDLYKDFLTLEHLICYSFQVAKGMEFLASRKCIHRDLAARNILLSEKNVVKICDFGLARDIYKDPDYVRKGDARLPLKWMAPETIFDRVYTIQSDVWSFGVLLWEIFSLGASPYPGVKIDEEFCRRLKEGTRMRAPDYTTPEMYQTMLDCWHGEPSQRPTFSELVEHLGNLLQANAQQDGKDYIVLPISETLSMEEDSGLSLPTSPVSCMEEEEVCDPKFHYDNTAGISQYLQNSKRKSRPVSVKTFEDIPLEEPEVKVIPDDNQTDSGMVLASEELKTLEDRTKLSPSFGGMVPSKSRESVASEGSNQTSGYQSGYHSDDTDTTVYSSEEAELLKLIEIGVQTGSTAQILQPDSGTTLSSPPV

Row | SMILES | TNF-α pg/mL (± SEM) HCT116 (TNF-α [1]) [pg/mL] | 1/(observed property) [2] | IC50 [2] [µM] | SI (selectivity index) PaCa2 [2] | IC50 [3] [µM] | IC50 [4, 12] [µM] | IC50 [4, 13] [µM] | SI (selectivity index) HCT116 [4] | TNF-α % inhibition MCF7 (TNF-α [5]) [%] | TNF-α pg/mL (± SEM) MCF7 (TNF-α [5]) [pg/mL] | inhibition at 10 µM (COX-1) [%] | inhibition at 10 µM (VEGFR-2 [6]) [%] | VEGFR-2 pg/mL ± SEM HCT116 (VEGFR-2 [6]) [pg/mL] | IC50 [7] [µM] | SI (selectivity index) MCF7 [7] | inhibition at 10 µM (VEGFR-2 [8]) [%] | VEGFR-2 pg/mL ± SEM PaCa2 (VEGFR-2 [8]) [pg/mL] | inhibition at 10 µM (VEGFR-2 [9]) [%] | VEGFR-2 pg/mL ± SEM MCF7 (VEGFR-2 [9]) [pg/mL] | inhibition at 10 µM (COX-2) [%] | further results
1 | CCOP(=O)(OCC)N1C/C(=C\c2ccc(Cl)cc2)C(=O)C2(C1)C(c1ccc(Cl)cc1)CN(C)C21C(=O)Nc2ccc(Cl)cc21 (stereo not drawn) [Compound 17j, Diethyl (E)-[5-chloro-5′′-(4-chlorobenzylidene)-4′-(4-chlorophenyl)-1′-methyl-2,4′′-dioxodispiro[indoline-3,2′-pyrrolidine-3′,3′′-piperidin]-1′′-yl]phosphonate] | 81.78 ± 1.4 | 0.1443 | 6.93 ± 0.337 | > 7.2 | 6.06 ± 0.157 | 3.487 ± 0.033 | 3.49 | > 14.3 | 0.5 | 82.87 ± 4.5 | 48.9 ± 1.5 | 80.3 | 62.50 ± 0.7 | 3.87 ± 0.102 | > 12.9 | 92.4 | 24.78 ± 0.3 | 82.7 | 44.80 ± 0.6 | 53.5 ± 2.3 | TNF-α % inhibition HCT116 (TNF-α [1]): 14.6%; SI (selectivity index) A549 [3]: > 8.3; SI (selectivity index, COX-2/COX-1) (COX-2): 1.05; IC50 [10]: > 50 µM; selectivity index (SI) [10]: high selectivity index; TNF-α % inhibition PaCa2 (TNF-α [11]): 11.9%; TNF-α pg/mL (± SEM) PaCa2 (TNF-α [11]): 98.5 ± 3.1 pg/mL
2 | CCOP(=O)(OCC)N1C/C(=C\c2ccc(Br)cc2)C(=O)C2(C1)C(c1ccc(Br)cc1)CN(C)C21C(=O)Nc2ccccc21 (stereo not drawn) [Compound 17l, Diethyl (E)-[5′′-(4-bromobenzylidene)-4′-(4-bromophenyl)-1′-methyl-2,4′′-dioxodispiro[indoline-3,2′-pyrrolidine-3′,3′′-piperidin]-1′′-yl]phosphonate] | 27.34 ± 1.1 | 0.1626 | 6.15 ± 0.413 | 1.3 | 7.28 ± 0.316 | 4.16 ± 0.129 | 4.16 | 1.9 | 59.6 | 33.67 ± 1.7 | 61.6 ± 1.2 | 73.5 | 84.20 ± 1.5 | 4.85 ± 0.082 | 1.6 | 73.5 | 86.45 ± 1.2 | 71.6 | 73.50 ± 0.8 | 50.3 ± 2.3 | SI (selectivity index) A549 [3]: 1.1; SI (selectivity index, COX-2/COX-1) (COX-2): 0.92; IC50 [10]: 7.85 ± 0.284 µM; TNF-α % inhibition PaCa2 (TNF-α [11]): 66.3%; TNF-α pg/mL (± SEM) PaCa2 (TNF-α [11]): 37.63 ± 0.8 pg/mL
3 | CCOP(=O)(OCC)N1C/C(=C\c2ccc(C)cc2)C(=O)C2(C1)C(c1ccc(C)cc1)CN(C)C21C(=O)Nc2ccc(F)cc21 (stereo not drawn) [Compound 17n, Diethyl (E)-(5-fluoro-1′-methyl-5′′-(4-methylbenzylidene)-2,4′′-dioxo-4′-(p-tolyl)dispiro[indoline-3,2′-pyrrolidine-3′,3′′-piperidin]-1′′-yl)phosphonate] | 86.47 ± 2.4 | 0.06519 | 15.3 ± 0.911 | > 3.3 | > 50 | 5.09 ± 0.191 | 5.09 | > 9.8 | 0.1 | 83.17 ± 4.1 | 50.6 ± 2.3 | 63.7 | 115.30 ± 2.2 | 4.37 ± 0.156 | > 11.5 | 87.5 | 40.70 ± 1.6 | 66.9 | 85.60 ± 0.7 | 47.3 ± 1.4 | TNF-α % inhibition HCT116 (TNF-α [1]): 9.7%; SI (selectivity index, COX-2/COX-1) (COX-2): 1.08; IC50 [10]: > 50 µM; selectivity index (SI) [10]: high selectivity index; TNF-α % inhibition PaCa2 (TNF-α [11]): 13.9%; TNF-α pg/mL (± SEM) PaCa2 (TNF-α [11]): 96.3 ± 3.0 pg/mL
